Source: PMC12289521, “Ligand binding to a Ni–Fe cluster orchestrates conformational changes of the CO-dehydrogenase–acetyl-CoA synthase complex” (Nature Catalysis, 2025)

Legend:
[1] = biological target: T1, acetyl-CoA synthase (ACS) (Carboxydothermus hydrogenoformans, UniProt Q3ACS4); assay: ITC of CODH–ACS complex with […] Ti(III)–EDTA, […] °C; assay type: binding
T1 construct: gene acsB; CODH–ACS complex, heterologously expressed in E. coli; with CO-dehydrogenase (CODH)
T1 sequence (Q3ACS4 1-732): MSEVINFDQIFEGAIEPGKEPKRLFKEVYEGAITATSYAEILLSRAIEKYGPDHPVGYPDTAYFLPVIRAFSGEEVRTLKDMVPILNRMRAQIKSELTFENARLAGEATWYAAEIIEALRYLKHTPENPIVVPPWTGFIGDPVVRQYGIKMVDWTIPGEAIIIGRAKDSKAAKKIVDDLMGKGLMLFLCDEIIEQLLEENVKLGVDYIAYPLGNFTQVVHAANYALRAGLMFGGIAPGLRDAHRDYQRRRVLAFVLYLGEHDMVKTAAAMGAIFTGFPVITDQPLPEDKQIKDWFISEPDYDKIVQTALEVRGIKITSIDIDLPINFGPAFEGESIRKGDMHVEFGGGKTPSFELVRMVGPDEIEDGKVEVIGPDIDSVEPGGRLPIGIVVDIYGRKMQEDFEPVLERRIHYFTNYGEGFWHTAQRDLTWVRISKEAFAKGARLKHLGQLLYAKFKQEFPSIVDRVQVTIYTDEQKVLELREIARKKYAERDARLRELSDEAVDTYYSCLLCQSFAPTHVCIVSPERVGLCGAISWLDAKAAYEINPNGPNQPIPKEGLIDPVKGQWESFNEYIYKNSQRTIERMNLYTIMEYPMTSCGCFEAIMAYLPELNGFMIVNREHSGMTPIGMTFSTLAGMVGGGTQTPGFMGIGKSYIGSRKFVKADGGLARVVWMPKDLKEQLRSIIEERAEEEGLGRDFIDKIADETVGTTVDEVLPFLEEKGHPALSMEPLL

[2] = biological target: T1, acetyl-CoA synthase (ACS); assay: ITC of methyl transfer to cluster A (two-substrate-two-product fit); assay type: binding

Compound | Kd [1] [µM] | ITC of methyl transfer to cluster A (two-substrate-two-product fit) [2]
CC(C)(COP(=O)(O)OP(=O)(O)OC[C@H]1O[C@@H](n2cnc3c(N)ncnc32)[C@H](O)[C@@H]1OP(=O)(O)O)[C@@H](O)C(=O)NCCC(=O)NCCS [CoA] | < 88 | 
methyl cobinamide |  | 341
